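Grown in 96-well plates, cells were treated for 48 hours with each compound at five concentrations. Insufficient inhibition: endpoint recorded as highest concentration tested. The concentration for 50% growth inhibition is given as GI50. At the TGI there is no net growth.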
Columns and labels:
Experiment in all cases: NCI tumour cell line growth inhibition, 48 h
NCI-H522 lung = test system: NCI-H522 lung
NCI-H226 lung = test system: NCI-H226 lung
HT29 colon = test system: HT29 colon
786-0 renal = test system: 786-0 renal
COLO 205 colon = test system: COLO 205 colon
MALME-3M melanoma = test system: MALME-3M melanoma
MOLT-4 leukemia = test system: MOLT-4 leukemia
MDA-MB-435 = test system: MDA-MB-435
HS 578T breast = test system: HS 578T breast
MDA-MB-231 breast = test system: MDA-MB-231 breast

Compound | TGI (NCI-H522 lung) | TGI (NCI-H226 lung) | TGI (HT29 colon) | TGI (786-0 renal) | TGI (COLO 205 colon) | TGI (MALME-3M melanoma) | TGI (MOLT-4 leukemia) | GI50 (NCI-H522 lung) | GI50 (NCI-H226 lung) | GI50 (MDA-MB-435) | TGI (MDA-MB-435) | GI50 (HS 578T breast) | TGI (HS 578T breast) | GI50 (786-0 renal) | GI50 (MOLT-4 leukemia) | GI50 (MDA-MB-231 breast) | TGI (MDA-MB-231 breast) | GI50 (HT29 colon) | GI50 (COLO 205 colon) | GI50 (MALME-3M melanoma)
c1cncc(C2c3[nH]c4ccccc4c3CCN2CCCN2CCCCC2)c1 (stereo not drawn) | > 100 µM | > 100 µM | > 100 µM | > 100 µM | > 100 µM | 92.5 µM | > 100 µM | – | – | – | – | – | – | – | – | – | – | – | – | –
CCN1C(=O)N(CC)C2C1NN=c1s/c(=C3\C(=O)N(CCC(C)C)c4ccccc43)c(=O)n12 (stereo not drawn) | 4.18 µM | 7.69 µM | – | 4.5 µM | – | – | > 100 µM | 1.01 µM | 2.52 µM | 0.308 µM | 1.14 µM | 1.08 µM | 4.87 µM | 1.83 µM | 2.86 µM | 1.66 µM | 3.42 µM | – | – | –
COc1cc2c(c(OC)c1OC)-c1ccc([O-])c(=O)cc1[C@@H](NC(C)=O)CC2.COc1cc2c(c(OC)c1OC)-c1ccc([O-])c(=O)cc1[C@@H](NC(C)=O)CC2.[Cu+2] | – | > 100 µM | > 100 µM | > 100 µM | 9.19 µM | > 100 µM | 21.1 µM | – | 5.13 µM | – | – | 1.94 µM | > 100 µM | 7.9 µM | 3.42 µM | 3.84 µM | > 100 µM | 3.43 µM | 2.82 µM | 15 µM
CCCCCCCC1c2cc3[nH]c(cc4nc(cc5[nH]c(cc(n2)[C@@]1(C)CC(=O)N(C)C)c(C)c5CCC(=O)O)C(CCC(=O)O)=C4C)cc3C (stereo partly drawn) | 37.8 µM | – | 39.8 µM | 83.1 µM | 32.2 µM | 39 µM | – | – | – | – | 92.5 µM | – | 40.6 µM | – | – | – | 33.7 µM | – | – | –
CSc1nc(NC2OCC(OC(C)=O)C(OC(C)=O)C2OC(C)=O)c(N=CC=Nc2c(NC3OCC(OC(C)=O)C(OC(C)=O)C3OC(C)=O)nc(SC)n(C)c2=O)c(=O)n1C (stereo not drawn) | > 100 µM | – | > 100 µM | > 100 µM | > 100 µM | > 100 µM | – | – | – | – | – | – | – | – | – | – | – | – | – | –
CSc1ccc(-c2cn3ccsc3n2)c(O)c1 | > 100 µM | > 100 µM | > 100 µM | 43.3 µM | > 62.7 µM | > 100 µM | > 100 µM | – | – | – | – | – | – | – | – | – | – | – | – | –
COc1cc2[nH]c(C(=O)c3cc(OC)c(OC)c(OC)c3)c(N)c2cc1C#CCO | – | > 100 µM | > 100 µM | > 100 µM | 0.842 µM | > 100 µM | > 100 µM | – | 0.752 µM | – | – | 0.345 µM | 72.3 µM | 0.373 µM | 0.649 µM | 0.629 µM | > 100 µM | 0.353 µM | 0.268 µM | 0.143 µM
CN1C(=O)n2c(nc3ccccc32)C(N=[N+]=[N-])(N=[N+]=[N-])C1=O (stereo not drawn) | > 100 µM | > 100 µM | > 100 µM | > 100 µM | > 100 µM | > 100 µM | > 100 µM | – | – | – | – | – | – | – | – | – | – | – | – | –
CCOC(=O)/C(=C/c1ccc(OC)c(OC)c1)C(=O)c1ccccc1 | 29.1 µM | – | 30.8 µM | > 100 µM | 31.1 µM | > 100 µM | 48.9 µM | – | – | – | – | – | – | – | – | – | – | – | – | –
CCN1C(C)=NC2C(=O)c3ccccc3C(=O)C21 (stereo not drawn) | – | > 100 µM | > 100 µM | > 100 µM | > 100 µM | > 100 µM | > 100 µM | – | – | – | – | – | – | – | – | – | – | – | – | –
CC[O-].CC[O-].[O-]c1ccccc1C=Nc1ccccc1.[O-]c1ccccc1C=Nc1ccccc1.[Ti+4] | – | > 100 µM | > 100 µM | > 100 µM | > 100 µM | > 100 µM | > 100 µM | – | > 100 µM | – | – | – | – | > 100 µM | 28.4 µM | – | – | > 100 µM | 96.8 µM | > 100 µM
CN1CCC23c4c5ccc(O)c4OC2C(=NN=C2CCC4(O)C6Cc7ccc(O)c8c7C4(CCN6C)C2O8)CCC3(O)C1C5 (stereo not drawn) | > 100 µM | > 100 µM | > 100 µM | > 100 µM | > 100 µM | > 100 µM | > 100 µM | – | – | – | – | – | – | – | – | – | – | – | – | –
C/C(=C\c1ccn(-c2ccc(N)c(C(F)(F)F)c2)n1)[C@@H]1C[C@@H]2O[C@]2(C)CCC[C@H](C)[C@H](O)[C@@H](C)C(=O)C(C)(C)[C@@H](O)CC(=O)O1 | 0.0576 µM | > 32.5 µM | 6.13 µM | 12.1 µM | 0.111 µM | 16.7 µM | 19.8 µM | 0.0085 µM | 1.99 µM | – | – | 0.0103 µM | 11 µM | 0.0175 µM | 0.0166 µM | 0.134 µM | > 25 µM | 0.00542 µM | 0.00855 µM | 0.015 µM
C/C(CC(=O)CCCC(=O)Nc1ccc(Cl)cc1Cl)=N/NC(=O)CC#N | – | > 100 µM | > 100 µM | > 100 µM | > 100 µM | > 100 µM | > 100 µM | – | – | – | – | – | – | – | – | – | – | – | – | –
C[C@]12CCC[C@H](OC=O)C1(O)C[C@H](C(=O)O)CC2 (stereo partly drawn) | > 100 µM | > 100 µM | > 100 µM | > 100 µM | > 100 µM | > 100 µM | > 100 µM | – | – | – | – | – | – | – | – | – | – | – | – | –
C=C1C(=O)O[C@@H]2[C@H]1CC[C@H](C)[C@]1(O)CCC(=O)[C@@]21C | – | > 10 µM | > 10 µM | > 10 µM | > 10 µM | > 10 µM | > 10 µM | – | – | – | > 10 µM | – | > 10 µM | – | – | – | – | – | – | –
COC1=CC(=O)c2ccc(C(C)C)cc2C1(C)C1=NC(C)(C)CO1 (stereo not drawn) | > 100 µM | > 100 µM | > 100 µM | > 100 µM | > 100 µM | > 100 µM | > 100 µM | – | – | – | – | – | – | – | – | – | – | – | – | –
CCC[CH2][Sn]1([CH2]CCC)[O]C(c2ccccn2)S(=O)(=O)[O]1 (stereo not drawn) | 2.47 µM | 30 µM | 12.2 µM | 4.11 µM | 4.54 µM | 3.27 µM | 7.51 µM | 1.18 µM | 16.2 µM | – | – | – | – | 2.12 µM | 2.84 µM | – | – | 3.79 µM | 2.1 µM | 1.63 µM
COc1ccc(C(=S)c2cc(OC)c(OC)c(OC)c2)cc1OC(=O)CCl | – | > 100 µM | > 100 µM | > 100 µM | 17 µM | > 76.6 µM | > 100 µM | – | 2.77 µM | < 0.01 µM | < 0.0108 µM | 0.023 µM | > 100 µM | 0.183 µM | < 0.0186 µM | 0.0253 µM | – | 1.99 µM | 1.3 µM | 0.58 µM
